Source: patent US10822325B2, “Human GLUT5 specific inhibitors and methods of treatment” (UNM RAINFOREST INNOVATIONS, priority 2015, dated 2020)
Entries after “also recorded” stand apart in the source; their conditions may differ.

Columns and labels:
[1] = target: T1, human GLUT4 (Homo sapiens, UniProt P14672); assay: Glucose entrance counter-flow transport in GLUT4 proteoliposomes; type: biochemical; settings: 2 mM compound
T1 construct: Full length DNA was subcloned into pFastBac1 (Life Technologies) vector with a N-terminal hexahistidine tag; hexahistidine (N); made in house; host or cells: Sf21 insect cells (baculovirus, pFastBac1)
T1 sequence (P14672 1-509): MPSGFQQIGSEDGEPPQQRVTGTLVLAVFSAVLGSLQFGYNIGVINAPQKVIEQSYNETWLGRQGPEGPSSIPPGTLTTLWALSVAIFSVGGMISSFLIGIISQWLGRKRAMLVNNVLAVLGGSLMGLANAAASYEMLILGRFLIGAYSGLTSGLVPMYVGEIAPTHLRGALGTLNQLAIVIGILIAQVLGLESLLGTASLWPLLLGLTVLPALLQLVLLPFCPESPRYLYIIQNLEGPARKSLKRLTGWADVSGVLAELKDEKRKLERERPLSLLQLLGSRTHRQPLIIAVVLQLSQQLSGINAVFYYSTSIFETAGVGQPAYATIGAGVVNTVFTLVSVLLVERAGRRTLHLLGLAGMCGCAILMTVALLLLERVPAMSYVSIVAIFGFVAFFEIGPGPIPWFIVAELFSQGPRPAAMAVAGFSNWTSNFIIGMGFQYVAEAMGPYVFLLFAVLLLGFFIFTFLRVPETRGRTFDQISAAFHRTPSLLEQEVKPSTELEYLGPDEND
Protocol: (§1) cDNAs of GLUT1, 3, 4 and 5 were purchased from Open Biosystems (GE Healthcare). cDNAs of GLUT2 was a gift from Prof. Graeme Bell at University of Chicago. Full length DNA was subcloned into pFastBac1 (Life Technologies) vector with a N-terminal hexahistidine tag. Bacmids were generated in DH10Bac E. coli cells (Life Technologies). Baculoviruses were produced using Cellfectin II Reagent and amplified in Sf21 insect cells (Life Technologies). Cells were maintained at 26° C., and P1 (10^6 pfu/mL) was collected from infected cells after 72 hours. SF21 cells were propagated in HyClone SFX-Insect media (GE Healthcare), supplemented with 5% fetal bovine serum (Biowest), 4.8 mM glutamine, antibiotics (100 units/mL Penicillin G and 100 μg/mL streptomycin sulfate) and amphotericin B (2.5 μg/mL). […]
(§2) For the entrance counterflow transport in proteoliposomes, the assay was started by the addition of 5 μL proteoliposomes solution (OD600 nm ˜30) to 200 μL, assay solution, containing 10 μM ^14C-radiolabeled glucose (for GLUT1 wild-type or F379H mutant and GLUT2-4) or fructose (for GLUT5 wild-type or H387F mutant and GLUT2) (Moravek Biochemicals) in 100 mM KPi buffer at pH 7.5. After one minute (or different specified time points when the time-dependent counter-flow transport activity was measured), the transport was stopped with ice-chilled quench buffer [0.1 M KPi (pH 5.5) and 0.1 M lithium chloride]. […]

[2] = target: T2, human GLUT2 (Homo sapiens, UniProt P11168); assay: Glucose or fructose entrance counter-flow transport in GLUT2 proteoliposomes; type: biochemical; settings: 2 mM compound
T2 construct: Full length DNA was subcloned into pFastBac1 (Life Technologies) vector with a N-terminal hexahistidine tag; hexahistidine (N); made in house; host or cells: Sf21 insect cells (baculovirus, pFastBac1)
T2 sequence (P11168 1-524): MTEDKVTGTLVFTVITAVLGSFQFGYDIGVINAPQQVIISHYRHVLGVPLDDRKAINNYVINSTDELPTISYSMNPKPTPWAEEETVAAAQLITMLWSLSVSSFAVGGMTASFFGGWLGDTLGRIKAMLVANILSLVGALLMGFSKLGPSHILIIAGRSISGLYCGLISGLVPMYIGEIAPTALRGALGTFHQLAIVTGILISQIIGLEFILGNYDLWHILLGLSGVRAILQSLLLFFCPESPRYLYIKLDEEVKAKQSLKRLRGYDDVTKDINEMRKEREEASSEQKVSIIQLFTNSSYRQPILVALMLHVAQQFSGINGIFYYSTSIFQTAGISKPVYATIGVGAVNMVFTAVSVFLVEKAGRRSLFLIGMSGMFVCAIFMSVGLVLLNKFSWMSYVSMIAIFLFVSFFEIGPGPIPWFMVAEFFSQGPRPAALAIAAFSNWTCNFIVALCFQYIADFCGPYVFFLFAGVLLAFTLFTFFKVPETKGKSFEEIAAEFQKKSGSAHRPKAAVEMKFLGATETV
Protocol: as §1, §2

## CS(=O)(=O)c1ccc(Nc2ccc3c(c2)OCO3)c([N+](=O)[O-])c1 [MSNBA, N-[4-(methylsulfonyl)-2-nitrophenyl]-1,3-benzodioxol-5-amine]
[1]
  effect on GLUT4 glucose transport: did not affect; also recorded: did not influence
[2]; fructose as substrate
  effect on GLUT2 fructose transport: did not affect; also recorded: did not influence
[2]; glucose as substrate
  effect on GLUT2 glucose transport: did not influence; also recorded: did not affect
